Reference: patent publication US20130287856A1, “Drug Delivery Dispersion And Film Formed Therefrom” (priority 2010, published 2013)

Assay: Extractable percent of unreacted silicone, second evaluation (cure rate with active agents)
Assay type: physicochemical
Settings: for Cure Rate After 3 Min. (%) / Cure Rate After 120 Min. (%): active agent added to Dispersion 1 aged 1 week at 45° C., slope of extractable plot, lower values = higher reactivity; for effect of active agent on cure (in words): active agent in Dispersion 1, after 120 minutes
Protocol: After ageing, the samples are spread out onto silicon free Glassine paper and the water is allowed to evaporate such that the vinyl PDMS and SiH siloxane reaction and form films. More specifically, about 2 grams of each sample is spread using a 1.2 g/m^2 bar equipped with an automatic film application (type 4340 from Braive Instruments). At times from zero to 120 minutes, the percent of vinyl PDMS and SiH siloxane is determined using 30 ml of methylisobutyl ketone (MIBK). Additionally, silicone concentration on the Glassine paper resulting from reacted vinyl PDMS and SiH siloxane is determined by XRF using an Oxford Lab X-3000. The percent unreacted/extractable vinyl PDMS and SiH siloxane is plotted in an extractable plot set forth as FIG. 3. Additional samples of Dispersion 1 are aged for 1 week at 45° C. […] At this point, films are formed from these samples to determine an effect of the active agents on curing and reaction of the vinyl PDMS and SiH siloxane. More specifically, for these samples, an additional extractable plot is generated (not shown in the Figures) using the same method as described above. […] The results of these evaluations are set forth in Table 1 immediately below with lower values representing higher reactivity.

Structure (SMILES) | Cure Rate After 3 Min. (%) | Cure Rate After 120 Min. (%) | effect of active agent on cure (in words)
Clc1ccccc1C(c1ccccc1)(c1ccccc1)n1ccnc1 [Clotrimazol, clotrimazol] | 25.7 | 5.4 | –
[Cl][Ag] [AgCl] | 16.4 | 3.3 | –
O=C(O)c1cccnc1 [Vitamin B3, vitamin B3] | 43.3 | 21.8 | slight inhibition of the cure
O=C(O)c1ccccc1O [Salicylic acid, salicylic acid] | 36.5 | 12.1 | slight inhibition of the cure
CC(C)(CO)[C@@H](O)C(=O)NCCCO [Dexpanthenol, dexpanthenol] | 18.4 | 4.8 | –
Cn1c(=O)c2c(ncn2C)n(C)c1=O [Caffeine, caffeine] | 31.7 | 8.5 | –
CCN(CC)CC(=O)Nc1c(C)cccc1C [Lidocaine, lidocaine] | 21.1 | 4.9 | –
